This passage reports IC50 results from patent publication US9567302B2, “Carbamate compounds and of making and using same” (Abide Therapeutics, Inc., priority 2012, dated 2017).

What all share (assay type): biochemical
Holding throughout (design): from tissue; host or cells: mouse brain membrane fraction
Settings in all cases: 30 min preincubation at 37° C.

The target of test [1] is T1, ABHD6 (Mus musculus, UniProt Q8R2Y0).
T1 sequence (Q8R2Y0 1-336): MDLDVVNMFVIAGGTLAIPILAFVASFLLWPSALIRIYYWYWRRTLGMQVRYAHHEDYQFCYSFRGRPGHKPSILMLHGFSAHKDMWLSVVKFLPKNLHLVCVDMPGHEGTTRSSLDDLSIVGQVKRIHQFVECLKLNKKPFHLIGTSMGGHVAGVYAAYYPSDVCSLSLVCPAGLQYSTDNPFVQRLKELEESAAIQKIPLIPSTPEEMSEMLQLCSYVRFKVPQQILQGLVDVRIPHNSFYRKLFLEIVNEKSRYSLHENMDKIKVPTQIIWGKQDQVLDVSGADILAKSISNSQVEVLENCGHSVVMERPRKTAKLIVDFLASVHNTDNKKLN
The test is described as follows: In vitro competitive activity-based protein profiling (FP-Rh), mouse ABHD6. Here is the method:
(§1) In Vitro Competitive Activity-Based Protein Profiling.
(§2) Proteomes (mouse brain membrane fraction or cell lysates) (50 μL, 1.0 mg/ml total protein concentration) were preincubated with varying concentrations of inhibitors at 37° C. After 30 min, FP-Rh (1.0 μL, 50 μM in DMSO) was added and the mixture was incubated for another 30 min at 37° C. Reactions were quenched with SDS loading buffer (50 μL—4×) and run on SDS-PAGE.

For test [2], the target named is T2, FAAH (Mus musculus, UniProt O08914).
T2 sequence (O08914 1-579): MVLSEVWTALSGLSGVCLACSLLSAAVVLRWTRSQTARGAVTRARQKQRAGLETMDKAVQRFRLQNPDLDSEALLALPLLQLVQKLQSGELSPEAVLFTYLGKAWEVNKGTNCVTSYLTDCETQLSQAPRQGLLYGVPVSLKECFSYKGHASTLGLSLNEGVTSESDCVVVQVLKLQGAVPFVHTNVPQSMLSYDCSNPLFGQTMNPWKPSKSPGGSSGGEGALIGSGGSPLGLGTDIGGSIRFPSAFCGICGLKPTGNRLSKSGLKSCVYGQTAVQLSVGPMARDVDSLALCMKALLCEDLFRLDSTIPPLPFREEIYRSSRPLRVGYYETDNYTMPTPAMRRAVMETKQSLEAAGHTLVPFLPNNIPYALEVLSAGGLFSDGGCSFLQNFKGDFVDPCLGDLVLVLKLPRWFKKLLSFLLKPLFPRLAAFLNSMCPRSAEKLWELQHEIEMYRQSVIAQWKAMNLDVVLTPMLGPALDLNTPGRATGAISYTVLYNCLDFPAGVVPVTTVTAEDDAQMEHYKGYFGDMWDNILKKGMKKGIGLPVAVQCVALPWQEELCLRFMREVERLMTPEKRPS
In words: In vitro competitive activity-based protein profiling (FP-Rh), mouse FAAH. Here is the method:
as §1, §2

The target in test [3] is T3, MAGL (Mus musculus, UniProt O35678).
T3 sequence (O35678 1-303): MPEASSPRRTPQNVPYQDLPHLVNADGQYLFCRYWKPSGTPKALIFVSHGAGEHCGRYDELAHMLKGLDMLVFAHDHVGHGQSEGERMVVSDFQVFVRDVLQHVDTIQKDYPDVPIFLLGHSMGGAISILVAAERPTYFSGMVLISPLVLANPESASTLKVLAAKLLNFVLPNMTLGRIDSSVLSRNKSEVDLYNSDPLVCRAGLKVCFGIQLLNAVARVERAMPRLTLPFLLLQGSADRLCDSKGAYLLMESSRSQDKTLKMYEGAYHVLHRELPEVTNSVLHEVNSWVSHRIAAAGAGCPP
In words: In vitro competitive activity-based protein profiling (FP-Rh), mouse MAGL. The method, then: as §1, §2

The structures appear in SMILES notation.

With `O=C1CCC(=O)N1OC(=O)N1CCCCC1C(F)(F)F` (stereo not drawn) [Example 24, 2,5-Dioxopyrrolidin-1-yl 2-(trifluoromethyl)piperidine-1-carboxylate], the IC50 – broadly, the concentration at which inhibition is half-maximal – in test [1] (Table 1, mouse proteome) is more than 10000 nM; in test [2] (Table 1, mouse proteome), more than 10000 nM; in test [3] (Table 1, mouse proteome), more than 10000 nM.
For the molecule `O=C1CCC(=O)N1OC(=O)N1CCCCC1CCc1ccccc1` (stereo not drawn) [Example 25, 2,5-Dioxopyrrolidin-1-yl 2-(2-phenylethyl)piperidine-1-carboxylate], the IC50 was more than 10000 nM in test [1] (Table 1, mouse proteome); more than 10000 nM in test [2] (Table 1, mouse proteome); more than 10000 nM in test [3] (Table 1, mouse proteome).
In the case of `CC(C)c1cc(-c2ccccc2)ccc1CN1CCN(C(=O)ON2C(=O)CCC2=O)CC1` [Example 188, 2,5-Dioxopyrrolidin-1-yl 4-{[4-phenyl-2-(propan-2-yl)phenyl]methyl}piperazine-1-carboxylate], the IC50 in test [1] (Table 2, mouse proteome) was 1000 to 10000 nM; in test [2] (Table 2, mouse proteome), more than 10000 nM; in test [3] (Table 2, mouse proteome), 100 to 1000 nM.
In the case of `CN1CC(=O)N(OC(=O)N2CCC(CCc3ccc(Cl)cc3)CC2)C1=O` [Example 49, 3-Methyl-2,5-dioxoimidazolidin-1-yl 4-(4-chlorophenethyl)piperidine-1-carboxylate], the IC50 is less than 100 nM in test [1] (Table 1, mouse proteome); 100 to 1000 nM in test [2] (Table 1, mouse proteome); less than 100 nM in test [3] (Table 1, mouse proteome).
Take `Cc1ccc(CN2CCN(C(=O)ON3C(=O)CCC3=O)CC2)cc1` [Example 71, 2,5-Dioxopyrrolidin-1-yl 4-(4-methylbenzyl)piperazine-1-carboxylate]: the IC50 was 1000 to 10000 nM in test [1] (Table 2, mouse proteome); 1000 to 10000 nM in test [2] (Table 2, mouse proteome); 100 to 1000 nM in test [3] (Table 2, mouse proteome).
As to `CN(C)C(=O)ON1C(=O)CCC1=O` [Example 57, 2,5-Dioxopyrrolidin-1-yl dimethylcarbamate], the IC50 in test [1] (Table 1, mouse proteome) is more than 10000 nM; in test [2] (Table 1, mouse proteome) it was more than 10000 nM; in test [3] (Table 1, mouse proteome) it was more than 10000 nM.
Take `CN(C)C(=O)c1cc(-c2ccccc2)ccc1CN1CCN(C(=O)ON2C(=O)CCC2=O)CC1` [Example 189, 2,5-Dioxopyrrolidin-1-yl 4-{[2-(dimethylcarbamoyl)-4-phenylphenyl]methyl}piperazine-1-carboxylate]: the IC50 was 1000 to 10000 nM in test [1] (Table 2, mouse proteome); more than 10000 nM in test [2] (Table 2, mouse proteome); 100 to 1000 nM in test [3] (Table 2, mouse proteome).
Regarding `CC1CCCCN1C(=O)ON1C(=O)CCC1=O` (stereo not drawn) [Example 10, 2,5-Dioxopyrrolidin-1-yl 2-methylpiperidine-1-carboxylate], the IC50 in test [1] (Table 1, mouse proteome) is more than 10000 nM; in test [2] (Table 1, mouse proteome), more than 10000 nM; in test [3] (Table 1, mouse proteome), more than 10000 nM.
Take `Cc1nc(-c2cccc(CN(C)C(=O)ON3C(=O)CCC3=O)c2)no1` [Example 14, 2,5-Dioxopyrrolidin-1-yl N-methyl-N-{[3-(5-methyl-1,2,4-oxadiazol-3-yl)phenyl]methyl}carbamate]: the IC50 in test [1] (Table 1, mouse proteome) was 100 to 1000 nM; in test [2] (Table 1, mouse proteome), more than 10000 nM; in test [3] (Table 1, mouse proteome), 1000 to 10000 nM.
As for `O=C(ON1C(=O)CCC1=O)N1CCN(Cc2cccc(Cl)c2N2CCOCC2)CC1` [Example 82, 2,5-Dioxopyrrolidin-1-yl 4-{[3-chloro-2-(morpholin-4-yl)phenyl]methyl}piperazine-1-carboxylate], the IC50 in test [1] (Table 2, mouse proteome) is 1000 to 10000 nM; in test [2] (Table 2, mouse proteome), more than 10000 nM; in test [3] (Table 2, mouse proteome), 100 to 1000 nM.
As to `O=C(ON1C(=O)CCC1=O)N1CCN(Cc2ccc(-n3cccn3)c(F)c2)CC1` [Example 108, 2,5-Dioxopyrrolidin-1-yl 4-(3-fluoro-4-(1H-pyrazol-1-yl)benzyl)piperazine-1-carboxylate], the IC50 was 1000 to 10000 nM in test [1] (Table 2, mouse proteome); more than 10000 nM in test [2] (Table 2, mouse proteome); 1000 to 10000 nM in test [3] (Table 2, mouse proteome).
Turning to `O=C(NC1CCCc2ccccc21)ON1C(=O)CCC1=O` (stereo not drawn) [Example 20, 2,5-Dioxopyrrolidin-1-yl N-(1,2,3,4-tetrahydronaphthalen-1-yl)carbamate], the IC50 was more than 10000 nM in test [1] (Table 1, mouse proteome); more than 10000 nM in test [2] (Table 1, mouse proteome); more than 10000 nM in test [3] (Table 1, mouse proteome).
`O=C(ON1C(=O)CCC1=O)N1CCN(Cc2ccc(Cl)cc2N2Cc3cccnc3C2)CC1` [Example 114, 2,5-Dioxopyrrolidin-1-yl 4-[(4-chloro-2-{5H,6H,7H-pyrrolo[3,4-b]pyridin-6-yl}phenyl)methyl]piperazine-1-carboxylate]: the IC50 was 100 to 1000 nM in test [1] (Table 2, mouse proteome); more than 10000 nM in test [2] (Table 2, mouse proteome); less than 100 nM in test [3] (Table 2, mouse proteome).
In the same order, the values of `O=C(ON1C(=O)CCC1=O)N1CCN(Cc2ccc(Cl)cc2N2CC3CCC(C2)O3)CC1` [Example 130, 2,5-Dioxopyrrolidin-1-yl 4-(2-(8-oxa-3-azabicyclo[3.2.1]octan-3-yl)-4-chlorobenzyl)piperazine-1-carboxylate] are 1000 to 10000 nM, more than 10000 nM and less than 100 nM.
On to `O=C(ON1C(=O)CCC1=O)N1CCN(C(c2cocn2)c2cocn2)CC1` [Example 152, 2,5-Dioxopyrrolidin-1-yl 4-(bis(oxazol-4-yl)methyl)piperazine-1-carboxylate], for which the IC50 in test [1] (Table 2, mouse proteome) lay in the range of 1000 to 10000 nM; in test [2] (Table 2, mouse proteome) it was 1000 to 10000 nM; in test [3] (Table 2, mouse proteome) it was 1000 to 10000 nM.
For `O=C(ON1C(=O)CC(c2ccccc2)C1=O)N1CCCCC1` (stereo not drawn) [Example 60, 2,5-Dioxo-3-phenylpyrrolidin-1-yl piperidine-1-carboxylate], the IC50 in test [1] (Table 1, mouse proteome) was more than 10000 nM; in test [2] (Table 1, mouse proteome) it was more than 10000 nM; in test [3] (Table 1, mouse proteome), more than 10000 nM.
For `O=C(ON1C(=O)CCC1=O)N1CCN(Cc2ccc(Cl)cc2N2CCCCC2)CC1` [Example 129, 2,5-Dioxopyrrolidin-1-yl 4-(4-chloro-2-(piperidin-1-yl)benzyl)piperazine-1-carboxylate], the IC50 in test [1] (Table 2, mouse proteome) was 100 to 1000 nM; in test [2] (Table 2, mouse proteome) it was more than 10000 nM; in test [3] (Table 2, mouse proteome), less than 100 nM.
In the same order, the values of `COc1ccc(CN2CCN(C(=O)ON3C(=O)CCC3=O)CC2)cc1` [Example 70, 2,5-Dioxopyrrolidin-1-yl 4-(4-methoxybenzyl)piperazine-1-carboxylate] are 1000 to 10000 nM, 1000 to 10000 nM and 1000 to 10000 nM.
Take `CCCCCCCC/C=C\CCCCCCCCNC(=O)ON1C(=O)CCC1=O` [Example 31, 2,5-Dioxopyrrolidin-1-yl N-[(9Z)-octadec-9-en-1-yl]carbamate]: the IC50 in test [1] (Table 1, mouse proteome) fell in the range of 1000 to 10000 nM; in test [2] (Table 1, mouse proteome) it was 1000 to 10000 nM; in test [3] (Table 1, mouse proteome), 1000 to 10000 nM.
For the molecule `O=C(ON1C(=O)CCC1=O)N1CCN(Cc2ccc(N3CCOCC3)cc2Cl)CC1` [Example 94, 2,5-Dioxopyrrolidin-1-yl 4-(2-chloro-4-morpholinobenzyl)piperazine-1-carboxylate], the IC50 in test [1] (Table 2, mouse proteome) was 1000 to 10000 nM; in test [2] (Table 2, mouse proteome), more than 10000 nM; in test [3] (Table 2, mouse proteome) it was 1000 to 10000 nM.
Regarding `O=C(ON1C(=O)CCC1=O)N1CCN(Cc2ccc(N3CCCC3)cc2Cl)CC1` [Example 78, 2,5-Dioxopyrrolidin-1-yl 4-(2-chloro-4-(pyrrolidin-1-yl)benzyl)piperazine-1-carboxylate], the IC50 in test [1] (Table 2, mouse proteome) is less than 100 nM; in test [2] (Table 2, mouse proteome), 1000 to 10000 nM; in test [3] (Table 2, mouse proteome) it was less than 100 nM.
Consider `O=C(ON1C(=O)CCC1=O)N1CCOCC1` [Example 38, 2,5-Dioxopyrrolidin-1-yl morpholine-4-carboxylate], for which the IC50 in test [1] (Table 1, mouse proteome) was more than 10000 nM; in test [2] (Table 1, mouse proteome) it was more than 10000 nM; in test [3] (Table 1, mouse proteome) it was more than 10000 nM.
With `O=C(ON1C(=O)CCC1=O)N1CCN(Cc2ccc(N3CCCC3)c(F)c2)CC1` [Example 75, 2,5-Dioxopyrrolidin-1-yl 4-(3-fluoro-4-(pyrrolidin-1-yl)benzyl)piperazine-1-carboxylate], the IC50 is 1000 to 10000 nM in test [1] (Table 2, mouse proteome); more than 10000 nM in test [2] (Table 2, mouse proteome); 100 to 1000 nM in test [3] (Table 2, mouse proteome).
Consider `C#CCCC(=O)N1CCN(C(=O)ON2C(=O)CCC2=O)CC1` [Example 26, 2,5-Dioxopyrrolidin-1-yl 4-(pent-4-ynoyl)piperazine-1-carboxylate], for which the IC50 in test [1] (Table 1, mouse proteome) was more than 10000 nM; in test [2] (Table 1, mouse proteome), more than 10000 nM; in test [3] (Table 1, mouse proteome), more than 10000 nM.
